System: recognition learning and memory retrieval
Assay: Novel Object Recognition (NOR) test
Assay type: in vivo, Sprague Dawley rats
Conditions: rats on low Mg diet; in comparison to Magtein and placebo control; FIG. 7
Source text: Male Sprague Dawley rats (150-175 grams on arrival) from Envigo (Indianapolis, IN) were used in the study. Upon receipt, rats were assigned unique identification numbers and were group housed with 2-3 rats per cage in ventilated cages with micro-isolator filter tops. All rats were examined and weighed prior to initiation of the study to assure adequate health and suitability. During the course of the study, 12/12 light/dark cycles will be maintained. The room temperature will be maintained between 20° C. and 23° C. with a relative humidity maintained around 50%.
On the day of arrival to the research facility, animals (except for the normal Mg diet group, N=15) were placed on LabDiet 5008, a diet that is deficient in Mg containing 0.20% magnesium. […]
The Novel Object Recognition (NOR) is a test of recognition learning and memory retrieval, which takes advantage of the spontaneous preference of rodents to investigate a novel object compared to a familiar one. […] All training and testing trials were video-taped and scored by an observer blind to treatments.
On days 1 and 2, rats were allowed to freely explore the arena (no objects inside) for a 5-minute habituation period. […] One hour later, the rats were again placed into the test arena in the presence of one familiar object and one novel object (Object A and Object B), and the time spent exploring both objects is recorded. […]

SMILES: O=C([O-])CC(O)(CC(=O)[O-])C(=O)[O-].O=C([O-])CC(O)(CC(=O)[O-])C(=O)[O-].[Mg+2].[Mg+2].[Mg+2] [Mg citrate]
- Cognitive function (Novel Object Recognition test, Recognition Index): trend toward improvement in cognitive function

From patent publication US12564605B2, “Plant based compositions and methods for the delivery of magnesium” (Standard Process, Inc., priority 2018, dated 2026)
